This experiment relates to Endogenous Huntingtin Protein. As to the kind of experiment: Endogenous Huntingtin Protein Assay (MSD plates, MW1 or MAB2166 capture antibody). The class given is cell-based. The following applies: Table 1. Put shortly: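 Sandwich MSD immunoassay: plates were coated overnight at 4° C with MW1 (expanded polyQ) or MAB2166 capture antibody at 1 μg/mL, then blocked with 5% BSA. Samples were bound overnight at 4° C, followed by rabbit mAb #5656S and SULFO-TAG anti-rabbit detection, each at 0.25 μg/mL for 1 h at room temperature. Signal was read by electrochemiluminescence.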

Some results are limits rather than exact numbers.

Usually IC50 stands for the point on the concentration scale where inhibition reaches its midpoint. The low end stands for greater potency, the high end for weaker potency. As for `C[C@@H]1C[C@@H](N(C)c2nc3sc(-c4ncc(-c5cnn(C)c5)c5cc[nH]c45)nc3s2)CCN1` [Compound 91, N-methyl-N-[(2R,4S)-2-methylpiperidin-4-yl]-5-[4-(1-methyl-1H-pyrazol-4-yl)-1H-pyrrolo[2,3-c]pyridin-7-yl][1,3]thiazolo[5,4-d][1,3]thiazol-2-amine], the IC50 was no more than 100 nM.

The compound `CN(c1nc2sc(-c3cnc(-c4ccn(C)c(=O)c4)cn3)nc2s1)[C@H]1C[C@]2(C)CC[C@](C)(C1)N2` [Compound 92, 4-[5-(5-{[(1R,3s,5S)-1,5-dimethyl-8-azabicyclo[3.2.1]octan-3-yl](methyl)amino}[1,3]thiazolo[5,4-d][1,3]thiazol-2-yl)pyrazin-2-yl]-1-methylpyridin-2(1H)-one] yielded an IC50 of no more than 100 nM.

As to `C[C@@H]1C[C@@H](N(C)c2nc3sc(-c4cnc(-c5cn[nH]c5)cn4)nc3s2)CCN1` [Compound 93, N-methyl-N-[(2R,4S)-2-methylpiperidin-4-yl]-5-[5-(1H-pyrazol-4-yl)pyrazin-2-yl][1,3]thiazolo[5,4-d][1,3]thiazol-2-amine], the IC50 was no more than 100 nM.

The compound `CN(c1nc2sc(-c3cnc(-c4cnn(C)c4)cn3)nc2s1)C1CC(C)(C)NC(C)(C)C1` [Compound 94, N-methyl-5-[5-(1-methyl-1H-pyrazol-4-yl)pyrazin-2-yl]-N-(2,2,6,6-tetramethylpiperidin-4-yl)[1,3]thiazolo[5,4-d][1,3]thiazol-2-amine] gave a half-maximal inhibitory concentration (IC50) of no more than 100 nM.

`C[C@H]1C[C@@H](N(C)c2nc3sc(-c4ncc(-c5cnn(C)c5)c5cc[nH]c45)nc3s2)CCN1` [Compound 95, N-methyl-N-[(2S,4S)-2-methylpiperidin-4-yl]-5-[4-(1-methyl-1H-pyrazol-4-yl)-1H-pyrrolo[2,3-c]pyridin-7-yl][1,3]thiazolo[5,4-d][1,3]thiazol-2-amine] had an IC50 of no more than 100 nM.

For `CN1CCCC2(CCN2c2nc3sc(-c4ncc(-c5cn[nH]c5)c5cc[nH]c45)nc3s2)C1` (stereo not shown) [Compound 96, 7-[5-(6-methyl-1,6-diazaspiro[3.5]nonan-1-yl)[1,3]thiazolo[5,4-d][1,3]thiazol-2-yl]-4-(1H-pyrazol-4-yl)-1H-pyrrolo[2,3-c]pyridine], the IC50 is no more than 100 nM.

Compound `C[C@H]1C[C@@H](N(C)c2nc3sc(-c4ccc(-c5cn[nH]c5)c5cc[nH]c45)nc3s2)CCN1` [Compound 97, N-methyl-N-[(2S,4S)-2-methylpiperidin-4-yl]-5-[4-(1H-pyrazol-4-yl)-1H-indol-7-yl][1,3]thiazolo[5,4-d][1,3]thiazol-2-amine] showed a concentration for half-maximal inhibition (IC50) of no more than 100 nM.

`C[C@H]1C[C@@H](N(C)c2nc3sc(-c4ncc(-c5cn[nH]c5)c5cc[nH]c45)nc3s2)CCN1` [Compound 98, N-methyl-N-[(2S,4S)-2-methylpiperidin-4-yl]-5-[4-(1H-pyrazol-4-yl)-1H-pyrrolo[2,3-c]pyridin-7-yl][1,3]thiazolo[5,4-d][1,3]thiazol-2-amine] displayed an IC50 of no more than 100 nM.

`C[C@H]1C[C@@H](N(C)c2nc3sc(-c4cnc(-c5cn[nH]c5)cn4)nc3s2)CCN1` [Compound 99, N-methyl-N-[(2S,4S)-2-methylpiperidin-4-yl]-5-[5-(1H-pyrazol-4-yl)pyrazin-2-yl][1,3]thiazolo[5,4-d][1,3]thiazol-2-amine] had an IC50 of 500 to 1000 nM.

Compound `CN(c1nc2sc(-c3ncc(-c4cn[nH]c4)nn3)nc2s1)C1CC(C)(C)NC(C)(C)C1` [Compound 100, N-methyl-5-[6-(1H-pyrazol-4-yl)-1,2,4-triazin-3-yl]-N-(2,2,6,6-tetramethylpiperidin-4-yl)[1,3]thiazolo[5,4-d][1,3]thiazol-2-amine] showed an IC50 of no more than 100 nM.

`CN(c1nc2sc(-c3ncc(-c4cn[nH]c4)n4ccnc34)nc2s1)C1CCNCC1` [Compound 101, N-methyl-N-(piperidin-4-yl)-5-[5-(1H-pyrazol-4-yl)imidazo[1,2-a]pyrazin-8-yl][1,3]thiazolo[5,4-d][1,3]thiazol-2-amine] displayed an IC50 of 1000 to 3000 nM.

`CN(c1nc2sc(-c3cnc(-n4ccnc4)cn3)nc2s1)C1CC(C)(C)NC(C)(C)C1` [Compound 102, 5-[5-(1H-imidazol-1-yl)pyrazin-2-yl]-N-methyl-N-(2,2,6,6-tetramethylpiperidin-4-yl)[1,3]thiazolo[5,4-d][1,3]thiazol-2-amine] registered an IC50 of no more than 100 nM.

On to `CN(c1nc2sc(-c3cnc(-n4ccnc4)cn3)nc2s1)[C@H]1C[C@]2(C)CC[C@](C)(C1)N2` [Compound 103, N-[(1R,3s,5S)-1,5-dimethyl-8-azabicyclo[3.2.1]octan-3-yl]-5-[5-(1H-imidazol-1-yl)pyrazin-2-yl]-N-methyl[1,3]thiazolo[5,4-d][1,3]thiazol-2-amine], for which the IC50 is no more than 100 nM.

In turn, `CN(c1nc2sc(-c3cnc(-n4cccn4)cn3)nc2s1)[C@H]1C[C@]2(C)CC[C@](C)(C1)N2` [Compound 104, N-[(1R,3s,5S)-1,5-dimethyl-8-azabicyclo[3.2.1]octan-3-yl]-N-methyl-5-[5-(1H-pyrazol-1-yl)pyrazin-2-yl][1,3]thiazolo[5,4-d][1,3]thiazol-2-amine] showed a half-maximal inhibitory concentration (IC50) of 500 to 1000 nM.

As to `CN(c1nc2sc(-c3cnc(-n4cccn4)cn3)nc2s1)C1CC(C)(C)NC(C)(C)C1` [Compound 105, N-methyl-5-[5-(1H-pyrazol-1-yl)pyrazin-2-yl]-N-(2,2,6,6-tetramethylpiperidin-4-yl)[1,3]thiazolo[5,4-d][1,3]thiazol-2-amine], the IC50 was in the range of 500 to 1000 nM.

As for `CN(c1nc2sc(-c3ccc(-c4cn[nH]c4)c4cn[nH]c34)nc2s1)C1CC(C)(C)NC(C)(C)C1` [Compound 107, N-methyl-5-[4-(1H-pyrazol-4-yl)-1H-indazol-7-yl]-N-(2,2,6,6-tetramethylpiperidin-4-yl)[1,3]thiazolo[5,4-d][1,3]thiazol-2-amine], the IC50 was no more than 100 nM.

With `CC1CC(N(C)c2nc3sc(-c4ccc(-c5cn[nH]c5)c5cn[nH]c45)nc3s2)CCN1C` (stereo not shown) [Compound 108, N-(1,2-dimethylpiperidin-4-yl)-N-methyl-5-[4-(1H-pyrazol-4-yl)-1H-indazol-7-yl][1,3]thiazolo[5,4-d][1,3]thiazol-2-amine], the IC50 was no more than 100 nM.

Regarding `C[C@H]1C[C@H](Oc2nc3sc(-c4ncc(-c5cn[nH]c5)c5cc[nH]c45)nc3s2)CCN1` [Compound 109, 7-(5-{[(2S,4R)-2-methylpiperidin-4-yl]oxy}[1,3]thiazolo[5,4-d][1,3]thiazol-2-yl)-4-(1H-pyrazol-4-yl)-1H-pyrrolo[2,3-c]pyridine], the IC50 is no more than 100 nM.

As for `CN(c1nc2sc(-c3ccc(-c4cn[nH]c4)c4cn[nH]c34)nc2s1)[C@H]1C[C@]2(C)CC[C@](C)(C1)N2` [Compound 110, N-[(1R,3s,5S)-1,5-dimethyl-8-azabicyclo[3.2.1]octan-3-yl]-N-methyl-5-[4-(1H-pyrazol-4-yl)-1H-indazol-7-yl][1,3]thiazolo[5,4-d][1,3]thiazol-2-amine], the IC50 is no more than 100 nM.

In the case of `CN(c1nc2sc(-c3ccc(Br)c4cn[nH]c34)nc2s1)[C@H]1C[C@]2(C)CC[C@](C)(C1)N2` [Compound 111, 5-(4-bromo-1H-indazol-7-yl)-N-[(1R,3s,5S)-1,5-dimethyl-8-azabicyclo[3.2.1]octan-3-yl]-N-methyl[1,3]thiazolo[5,4-d][1,3]thiazol-2-amine], the IC50 is no more than 100 nM.

The compound `CC1CC(N(C)c2nc3sc(-c4ccc(-c5cn[nH]c5)c5nc[nH]c45)nc3s2)CCN1C` (stereo not shown) [Compound 112, N-(1,2-dimethylpiperidin-4-yl)-N-methyl-5-[4-(1H-pyrazol-4-yl)-1H-benzimidazol-7-yl][1,3]thiazolo[5,4-d][1,3]thiazol-2-amine] gave an IC50 of no more than 100 nM.

On to `CN(c1nc2sc(-c3ncc(-c4cn[nH]c4)c4ccn(C)c34)nc2s1)C1CCNCC1` [Compound 113, N-methyl-5-[1-methyl-4-(1H-pyrazol-4-yl)-1H-pyrrolo[2,3-c]pyridin-7-yl]-N-(piperidin-4-yl)[1,3]thiazolo[5,4-d][1,3]thiazol-2-amine], for which the IC50 lay within 100 to 500 nM.

Compound `CN(c1nc2sc(-c3cnc(-c4cn[nH]c4)cn3)nc2s1)[C@H]1C[C@]2(C)CC[C@](C)(C1)N2C` [Compound 114, N-methyl-5-[5-(1H-pyrazol-4-yl)pyrazin-2-yl]-N-[(1R,3s,5S)-1,5,8-trimethyl-8-azabicyclo[3.2.1]octan-3-yl][1,3]thiazolo[5,4-d][1,3]thiazol-2-amine] came in with an IC50 of no more than 100 nM.

`CC1CC(N(C)c2nc3sc(-c4ncc(-c5cn[nH]c5)c5[nH]cnc45)nc3s2)CCN1C` (stereo not shown) [Compound 115, N-(1,2-dimethylpiperidin-4-yl)-N-methyl-5-[7-(1H-pyrazol-4-yl)-1H-imidazo[4,5-c]pyridin-4-yl][1,3]thiazolo[5,4-d][1,3]thiazol-2-amine] showed an IC50 of no more than 100 nM.

For the compound `CN(c1nc2sc(-c3cnc(Br)n4ccnc34)nc2s1)C1CCNCC1` [Compound 116, 5-(5-bromoimidazo[1,2-c]pyrimidin-8-yl)-N-methyl-N-(piperidin-4-yl)[1,3]thiazolo[5,4-d][1,3]thiazol-2-amine], the IC50 was in the range of 500 to 1000 nM.

In turn, `CN(c1nc2sc(-c3ncc(Br)n4ccnc34)nc2s1)C1CCNCC1` [Compound 117, 5-(5-bromoimidazo[1,2-a]pyrazin-8-yl)-N-methyl-N-(piperidin-4-yl)[1,3]thiazolo[5,4-d][1,3]thiazol-2-amine] registered an IC50 of 1000 to 3000 nM.

With `CC1CC(N(C)c2nc3sc(-c4ccc(-n5nccn5)c5cc[nH]c45)nc3s2)CCN1C` (stereo not shown) [Compound 118, N-(1,2-dimethylpiperidin-4-yl)-N-methyl-5-[4-(2H-1,2,3-triazol-2-yl)-1H-indol-7-yl][1,3]thiazolo[5,4-d][1,3]thiazol-2-amine], the IC50 is 500 to 1000 nM.

`CC1CC(N(C)c2nc3sc(-c4ccc(Cl)c5cc[nH]c45)nc3s2)CCN1C` (stereo not shown) [Compound 119, 5-(4-chloro-1H-indol-7-yl)-N-(1,2-dimethylpiperidin-4-yl)-N-methyl[1,3]thiazolo[5,4-d][1,3]thiazol-2-amine] registered an IC50 of 1000 to 3000 nM.

Values taken from patent publication US11685746B2, “Heteroaryl compounds for treating Huntington's disease” (PTC THERAPEUTICS, INC., priority 2018, dated 2023).
